Test results published in patent US20070270455A1, “INHIBITION OF NF-kB” (priority 2005, published 2007).

Key:
MCF7ConALacZ cells = assay: p53-responsive reporter assay in MCF7 cells; assay type: cell-based; conditions: compared with doxorubicin
Source text: (§1) Bars represent folds of p53 responsive reporter induction over untreated controls. Box represents western blot analysis of p53 expression in total protein lysates of both cells variants in basal and doxorubicin treated conditions (to evaluate basal and DNA-damage induced level of p53). […] Fold induction presented as fold of reporter activation over untreated control. […] Fold induction presented as fold of reporter activation over untreated control.
For cotransfection set-up, 2×10^5 cells were plated into 6 well plates and, after overnight incubation, transfected with Lipofectamin Plus reagent (Gibco BRL) with 0.5 μg of reporter plasmids (p21-ConALuc or pNF-κBLuc) in combination with different concentrations of p53, Arf, Ss-IκB, or siHDM2 expressing plasmids. Corresponding empty vectors were added into all transfections up to 2 μg of total DNA amount. […] Luciferase activity and β-galactosidase activity was measured in lysates prepared 48 hours after transfection with Cell Lysis Buffer (Promega) by luciferase assay system (Promega) or β-galactosidase enzyme system (Promega). Luminometric and colorimetric reactions were read on the Wallack 1420 plate reader (Perkin Elmer). […] Luciferase or β-galactosidase activity and protein concentration were measured in aliquots of cell lysates using standard kits (Promega, Luciferase and β-galactosidase assay systems, Biorad Protein Assay Kit).

[1] = tested on: HT1080-sip53 and HT1080-siGFP cells; assay: Cell survival assay in isogenic cell pairs with anti-p53 or control siRNA; assay type: cell-based, human; conditions: anti-p53 vs control siRNA; maximum difference in HT1080 cells
[2] = tested on: HT1080 sip53 or HT1080 siGFP cells; assay: Cell cycle analysis; assay type: cell-based, human
IκB = assay: Western blot of IκB level and phosphorylation; assay type: cell-based; conditions: PC-3 cells, 10 μM; MCF7 cells
Experimental: Western blot analysis of total protein lysates was performed using antibodies against p53 (DO1) and against specific sites of phosphorylation in p53. […] HCT116 cells were treated for 30 minutes with 1 μM PS-341. PS-341 was washed off after 30 minutes and cells were re-incubated in drug free medium prior to analysis at 3 hours or 16 hours post-treatment. […] Proteasome activity was determined by measuring the absorbance of free AMC generated by cleavage of an AMC-fluorogenic peptide. The proteasome activity of untreated cells was set at 100%. […] Cell lysates were isolated at the indicated hours after treatment and used for western blotting. […]
Cells were lysed in RIPA buffer (25 mM Tris HCl, pH7.2, 125 mM NaCl, 1% NP40, 1% sodium deoxycholate, 1 mM EDTA) containing 1 mM PMSF (Sigma), 10 μg/ml of aprotinin (Sigma) and 10 μg/ml of leupeptin (Sigma). Protein concentrations were determined with BioRad Dc protein assay kit. […] The following antibodies were used: anti-p53—monoclonal mouse DO1 (Santa-Cruz), anti-p21—monoclonal mouse F-5 (Santa-Cruz), anti-mdm2—monoclonal mouse SMP14 (Santa-Cruz). p53 phosphorylation status was analyzed using phospho-p53 sampler kit from Cell signaling according to manufacturer's recommendations, anti-p65—(C20, Santa Cruz), anti-phospho-p65—(ser536, Cell Signaling), anti-IκBa—(C21, Santa Cruz), anti-p50—(NLS, Santa Cruz). […]

RCC54 = assay: Global gene expression profile by microarray hybridization, RCC54; assay type: cell-based; conditions: 36847 genes; at least in one dose (2 μM, 10 μM) in both cell lines RCC45 and RCC54; 16 hours
Experimental: RNA was isolated after 16 hours of treatment that was enough to induce p53 but before appearance of signs of cell death. Among the 36847 genes represented on the array, only 0.6% changed their mRNA abundance by at least a factor of 2 at least in one dose in both cell lines.

topoisomerase II = assay: DNA—Topoisomerase II activity assay; assay type: cell-based; conditions: in vitro; HT1080 cells, 1 h
Experimental: Western blot analysis of total protein lysates was performed using antibodies against p53 (DO1) and against specific sites of phosphorylation in p53. […] HCT116 cells were treated for 30 minutes with 1 μM PS-341. PS-341 was washed off after 30 minutes and cells were re-incubated in drug free medium prior to analysis at 3 hours or 16 hours post-treatment. […] Proteasome activity was determined by measuring the absorbance of free AMC generated by cleavage of an AMC-fluorogenic peptide. The proteasome activity of untreated cells was set at 100%. […] Cell lysates were isolated at the indicated hours after treatment and used for western blotting. Blots were probed with antibodies specific for both phosphorylated and unphosphorylated forms of IκB-α. β-actin specific antibodies were used as a loading control.
HT1080 cells were labeled for 24 hours with 0.02 to 0.04 mCi/mL of [^14C] thymidine, specific activity 53 mCi/mmol (Amersham). […] The induction of topo II-mediated DNA scission was determined by measuring precipitation of the protein DNA complex using a modification of the SDS-KCl technique.

HT1080ConALuc cells = assay: p53-responsive luciferase reporter assay in HT1080 cells; assay type: cell-based, human
Source text: as §1
For cotransfection set-up, 2×10^5 cells were plated into 6 well plates and, after overnight incubation, transfected with Lipofectamin Plus reagent (Gibco BRL) with 0.5 μg of reporter plasmids (p21-ConALuc or pNF-κBLuc) in combination with different concentrations of p53, Arf, Ss-IκB, or siHDM2 expressing plasmids. Corresponding empty vectors were added into all transfections up to 2 μg of total DNA amount. Normalization of transfection efficiency was done by adding 0.2 μg of pCMV-LacZ plasmid. Luciferase activity and β-galactosidase activity was measured in lysates prepared 48 hours after transfection with Cell Lysis Buffer (Promega) by luciferase assay system (Promega) or β-galactosidase enzyme system (Promega). Luminometric and colorimetric reactions were read on the Wallack 1420 plate reader (Perkin Elmer). Integrated reporter set-up. 2×10^4 of cells with integrated reporter were plated in 96 well plates. After overnights incubation chemical compounds or media from lentivirus producing cells were added. At different time points cell lysates were prepared using Reporter Lysis Buffer (Promega). Luciferase or β-galactosidase activity and protein concentration were measured in aliquots of cell lysates using standard kits (Promega, Luciferase and β-galactosidase assay systems, Biorad Protein Assay Kit).

[3] = after treatment with the drug, FIG. 3f

Nc1c2ccccc2nc2ccccc12 [9AA, 9-aminoacridine]
induction of p53 reporter and p53-responsive genes (in words) (MCF7ConALacZ cells): weaker than that of doxorubicin
toxicity in cells differing in p53 status [1]: less toxic to the cells with reduced p53 expression
effect on cell cycle ([2]; 3 μM): p53-dependent growth arrest
effect on cell cycle ([2]; 20 μM): apoptosis
level of IκB (IκB): gradual decrease followed by complete disappearance of IκB
genes that changed mRNA abundance by at least a factor of 2 (RCC54): 0.6%
effect on topoisomerase II activity (topoisomerase II): no effect
concentration at which p53 was activated (HT1080ConALuc cells; HT1080ConALuc cells, 24 hours): ≥ 1 µM
time at which p53-dependent transactivation becomes detectable (HT1080ConALuc cells; [3]): 12 h
time at which p53-dependent transactivation reaches maximum (HT1080ConALuc cells; [3]): around 36 hours
